Experimental data taken from the supplement of paper PMC11061612.

What was measured:
Assay in all cases: Bliss excess, mean over the matrix (fraction); higher = more synergy
[1] = tested on: JHH-2 (Hepatocellular Carcinoma)
Method in brief: (§1)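 Cell lines in DMEM/F12 or RPMI with 10% FBS were plated in 1536-well plates, held 24 hours at 37°C, 5% CO2, then given two-drug dose matrices for 72 hours (DMSO typically 0.2%). Viability was read by CellTiter-Glo 2.0 luminescence and scaled as inhibition from 0 (vehicle wells) to 1 (blank wells). Combination Emax is the second-highest inhibition in the matrix; Bliss excess is observed combination effect minus expected EA + EB − EA·EB, EA and EB being single-agent effects.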

[2] = tested on: OACp4C (Esophageal Adenocarcinoma)
Method in brief: as §1

[3] = tested on: EPLC-272H (Other Solid Carcinomas)
Method in brief: as §1

KP-N-YN (Neuroblastoma) = tested on: KP-N-YN (Neuroblastoma)
Method in brief: as §1

NB13 (Neuroblastoma) = tested on: NB13 (Neuroblastoma)
Method in brief: as §1

[4] = tested on: DMS-53 (Small Cell Lung Carcinoma)
Method in brief: as §1

[5] = tested on: ESO26 (Esophageal Adenocarcinoma)
Method in brief: as §1

[6] = tested on: JHU-022 (Oral Cavity Carcinoma)
Method in brief: as §1

[7] = tested on: LS-411N (Colorectal Carcinoma)
Method in brief: as §1

HCC70 (Breast Carcinoma) = tested on: HCC70 (Breast Carcinoma)
Method in brief: as §1

[8] = tested on: NCI-H1651 (Lung Adenocarcinoma)
Method in brief: as §1

IM-9 (Non-Cancerous) = tested on: IM-9 (Non-Cancerous)
Method in brief: as §1

EW-7 (Ewing's Sarcoma) = tested on: EW-7 (Ewing's Sarcoma)
Method in brief: as §1

COLO-792 (Melanoma) = tested on: COLO-792 (Melanoma)
Method in brief: as §1

[9] = tested on: NCI-H441 (Lung Adenocarcinoma)
Method in brief: as §1

PEO1 (Ovarian Carcinoma) = tested on: PEO1 (Ovarian Carcinoma)
Method in brief: as §1

[10] = tested on: NCI-H1703 (Squamous Cell Lung Carcinoma)
Method in brief: as §1

[11] = tested on: SK-HEP-1 (Hepatocellular Carcinoma)
Method in brief: as §1

[12] = tested on: Jurkat (T-Lymphoblastic Leukemia)
Method in brief: as §1

RH-41 (Rhabdomyosarcoma) = tested on: RH-41 (Rhabdomyosarcoma)
Method in brief: as §1

In the case of `CCc1c2c(nc3ccc(O)cc13)-c1cc3c(c(=O)n1C2)COC(=O)[C@]3(O)CC` [SN-38] + O=C(c1cc(Cc2n[nH]c(=O)c3ccccc23)ccc1F)N1CCN(C(=O)C2CC2)CC1 [Olaparib] (first compound max 0.3 µM, 7x7, partner max 10 µM), the Bliss excess [1] is reported as -0.0442, the Bliss excess [2] is reported as 0.0413 and the Bliss excess [3] is reported as 0.071. For the same molecule, the Bliss excess (KP-N-YN (Neuroblastoma)) was -0.0038, the Bliss excess (NB13 (Neuroblastoma)) was -0.017 and the Bliss excess [4] was 0.0457. The Bliss excess [5] was 0.0237, the Bliss excess [6] was 0.0415 and the Bliss excess [7] was -0.012. The Bliss excess (HCC70 (Breast Carcinoma)) was 0.0458, the Bliss excess [8] was 0.0252 and the Bliss excess (IM-9 (Non-Cancerous)) was 0.0871. The Bliss excess (EW-7 (Ewing's Sarcoma)) was 0.0538, the Bliss excess (COLO-792 (Melanoma)) was 0.0356 and the Bliss excess [9] was 0.0449. The Bliss excess (PEO1 (Ovarian Carcinoma)) was 0.0523, the Bliss excess [10] was 0.0271 and the Bliss excess [11] was 0.0077.

`CN(C)CCCOc1ccc(-c2ccc3ncc4c(c3c2)n(C2CCOCC2)c(=O)n4C)cn1` [AZD0156] + C[C@@H]1COCCN1C2=NC(=NC(=C2)C3(CC3)[S@](=N)(=O)C)C4=C5C=CNC5=NC=C4 [AZD6738] (first compound max 1 µM, 7x7, partner max 10 µM) gave a Bliss excess [1] of -0.0249, a Bliss excess [2] of 0.0169 and a Bliss excess [3] of 0.0156. The Bliss excess (KP-N-YN (Neuroblastoma)) was 0.0249, the Bliss excess (NB13 (Neuroblastoma)) was 0.058 and the Bliss excess [4] was -0.0249. For the same molecule, the Bliss excess [5] was 0.0158, the Bliss excess [6] was -0.0103 and the Bliss excess [7] was -0.0145. For the same molecule, the Bliss excess (HCC70 (Breast Carcinoma)) was -0.0103, the Bliss excess [8] was -0.0468 and the Bliss excess [12] was 0.1. For the same molecule, the Bliss excess (IM-9 (Non-Cancerous)) was 0.05, the Bliss excess (EW-7 (Ewing's Sarcoma)) was 0.0318 and the Bliss excess (COLO-792 (Melanoma)) was -0.0297. It also gave a Bliss excess [9] of -0.0718, a Bliss excess (PEO1 (Ovarian Carcinoma)) of -0.0327 and a Bliss excess [10] of -0.0341. The Bliss excess [11] was -0.0034 and the Bliss excess (RH-41 (Rhabdomyosarcoma)) was 0.0593.

Molecule `COc1nnc2ccc(N3CCC(c4ccc(OCCN5CCN(C)C(=O)[C@H]5C)cc4)CC3)nn12` [AZD5153] + C=CCn1c(=O)c2cnc(Nc3ccc(N4CCN(C)CC4)cc3)nc2n1-c1cccc(C(C)(C)O)n1 [AZD1775] (first compound max 1 µM, partner max 1 µM) has a Bliss excess [1] of -0.1, a Bliss excess [2] of -0.0295 and a Bliss excess [3] of -0.0939. For the same molecule, the Bliss excess (KP-N-YN (Neuroblastoma)) was -0.135, the Bliss excess (NB13 (Neuroblastoma)) was -0.0645 and the Bliss excess [4] was 0.0269. For the same molecule, the Bliss excess [5] was -0.0501, the Bliss excess [6] was -0.0698 and the Bliss excess [7] was -0.0334. The Bliss excess (HCC70 (Breast Carcinoma)) was -0.0339, the Bliss excess [8] was 0.0305 and the Bliss excess [12] was -0.0038. The Bliss excess (IM-9 (Non-Cancerous)) was -0.107, the Bliss excess (EW-7 (Ewing's Sarcoma)) was -0.0403 and the Bliss excess (COLO-792 (Melanoma)) was 0.0823. The Bliss excess [9] was -0.0322, the Bliss excess (PEO1 (Ovarian Carcinoma)) was 0.058 and the Bliss excess [10] was 0.0052. For the same molecule, the Bliss excess [11] was -0.0166 and the Bliss excess (RH-41 (Rhabdomyosarcoma)) was 0.0035.

`NC1(C(=O)N[C@@H](CCO)c2ccc(Cl)cc2)CCN(c2ncnc3[nH]ccc23)CC1` [Capivasertib] + Cn1cnc2c(F)c(Nc3ccc(Br)cc3Cl)c(C(=O)NOCCO)cc21 [Selumetinib] (first compound max 10 µM, 7x7, partner max 10 µM) showed a Bliss excess [1] of 0.016, a Bliss excess [2] of -0.0318 and a Bliss excess [3] of 0.128. The Bliss excess (KP-N-YN (Neuroblastoma)) was 0.053, the Bliss excess (NB13 (Neuroblastoma)) was -0.0062 and the Bliss excess [4] was 0.0155. The Bliss excess [5] was 0.0818, the Bliss excess [6] was -0.0397 and the Bliss excess [7] was 0.0005. For the same molecule, the Bliss excess (HCC70 (Breast Carcinoma)) was 0.18, the Bliss excess [8] was -0.0156 and the Bliss excess [12] was 0.009. The Bliss excess (IM-9 (Non-Cancerous)) was -0.0169, the Bliss excess (EW-7 (Ewing's Sarcoma)) was 0.0429 and the Bliss excess (COLO-792 (Melanoma)) was 0.0139. For the same molecule, the Bliss excess [9] was -0.0041, the Bliss excess (PEO1 (Ovarian Carcinoma)) was -0.0358 and the Bliss excess [10] was 0.0358. For the same molecule, the Bliss excess [11] was -0.0083 and the Bliss excess (RH-41 (Rhabdomyosarcoma)) was 0.0251.

`CC1(C)CCC(CN2CCN(c3ccc(C(=O)NS(=O)(=O)c4ccc(NCC5CCOCC5)c([N+](=O)[O-])c4)c(Oc4cnc5[nH]ccc5c4)c3)CC2)=C(c2ccc(Cl)cc2)C1` [Venetoclax] + COc1cc(Nc2ncc3c(n2)-c2ccc(Cl)cc2C(c2c(F)cccc2OC)=NC3)ccc1C(=O)O [Alisertib] (first compound max 1 µM, 7x7, partner max 10 µM) gave a Bliss excess [1] of -0.0018, a Bliss excess [2] of 0.0112 and a Bliss excess [3] of 0.0442. It also gave a Bliss excess (KP-N-YN (Neuroblastoma)) of 0.0886, a Bliss excess (NB13 (Neuroblastoma)) of 0.0028 and a Bliss excess [4] of 0.192. It also gave a Bliss excess [5] of -0.003, a Bliss excess [6] of -0.0385 and a Bliss excess [7] of -0.0329. For the same molecule, the Bliss excess (HCC70 (Breast Carcinoma)) was 0.0437, the Bliss excess [8] was 0.0211 and the Bliss excess [12] was 0.165. For the same molecule, the Bliss excess (IM-9 (Non-Cancerous)) was 0.043, the Bliss excess (EW-7 (Ewing's Sarcoma)) was 0.0262 and the Bliss excess (COLO-792 (Melanoma)) was 0.0487. For the same molecule, the Bliss excess [9] was -0.0511, the Bliss excess (PEO1 (Ovarian Carcinoma)) was 0.0007 and the Bliss excess [10] was 0.0636. It also gave a Bliss excess [11] of -0.0578 and a Bliss excess (RH-41 (Rhabdomyosarcoma)) of 0.135.

`CN(C)CCCOc1ccc(-c2ccc3ncc4c(c3c2)n(C2CCOCC2)c(=O)n4C)cn1` [AZD0156] + O=C(c1cc(Cc2n[nH]c(=O)c3ccccc23)ccc1F)N1CCN(C(=O)C2CC2)CC1 [Olaparib] (first compound max 3 µM, partner max 3 µM) showed a Bliss excess [1] of 0.0203, a Bliss excess [2] of -0.0005 and a Bliss excess [3] of -0.0122. For the same molecule, the Bliss excess [4] was -0.0283, the Bliss excess [5] was -0.0039 and the Bliss excess [6] was -0.0079. The Bliss excess [7] was 0.0922, the Bliss excess (HCC70 (Breast Carcinoma)) was -0.0548 and the Bliss excess [8] was 0.132. The Bliss excess [12] was 0.174, the Bliss excess (IM-9 (Non-Cancerous)) was 0.275 and the Bliss excess (EW-7 (Ewing's Sarcoma)) was 0.119. The Bliss excess (COLO-792 (Melanoma)) was 0.0844, the Bliss excess [9] was -0.0003 and the Bliss excess (PEO1 (Ovarian Carcinoma)) was -0.0891. The Bliss excess [10] was 0.0821, the Bliss excess [11] was 0.0576 and the Bliss excess (RH-41 (Rhabdomyosarcoma)) was 0.0128.
